# Data as given in patent US12460243B2, “Mass spectrometry determination of the sensitivity or resistance of bacteria to an antibiotic” (priority 2019, dated 2025).
# Bridge positions count the residues as written; N and C are the ends. Square brackets hold non-standard residues; d marks the D form. Peptide text beside a SMILES is read from it. * marks the point of attachment. Heptanoyl(6-Me) = CC(C)CCCCC(=O)*; Dab = NCC[C@H](N)C(=O)O
# Test system: Klebsiella pneumoniae
# Assay: MALDI-TOF detection of released characteristic proteins, 10 min at 50° C., filtration (examples V, VI)
# Assay type: cell-based
# Settings: colistin 2.5 mg/ml, 10 min 50° C.
# Description: The tests were carried out using the following steps: • preparing a suspension of microorganism at 2 McF in water (suspension medium, bioMérieux reference 70700), • preparing a solution of colistin sulfate (Sigma reference C4461) at a concentration of 2× in pure water (taking into account the colistin titer indicated by the manufacturer).
# The proteins characteristic of the species Klebsiella pneumoniae are the DNA binding protein H-NS, the ribosomal proteins L29, L31, L34 and US9, the cold shock protein containing a CsbD domain (CsbD domain-containing protein), and the uncharacterized proteins with m/z 6290 and 8308. These proteins are characterized respectively by the peaks at 7705 (DNA binding protein H-NS), 7274 (L29), 7743 (L31), 5381 (L34), 7384 (US9), 8309 (CsbD), more or less 1000 parts per million (ppm). For their part, the hypothetical proteins are characterized by peaks at 6290 and […], more or less 1000 parts per million (ppm).
# In the context of this example, the tests were carried out with the method of the present invention to determine the sensitivity or resistance of several bacteria of several strains such as in example V and comprising the following steps: • measuring the intensity of each peak observed, • finding a ratio between the sum of the intensities of the protein peaks of the microorganism and at least 1 peak of colistin. • determining the status, resistant or sensitive to colistin, as a function of the sum of the ratios obtained and of a threshold fixed for each species. • a resistant microorganism will have a low ratio and a sensitive microorganism will have a high ratio.
# The K. pneumoniae strains KP S10-1, KP S10-2, KP S15-1, KP S15-2, KP R9-1, KP R9-2, KP R16-1 and KP R16-2 are also studied and the proteins characteristic of the species K. pneumoniae are analyzed. These characteristic proteins are the DNA binding protein H-NS, the ribosomal proteins L29, L31, L34 and US9, the cold shock protein containing a CsbD domain (CsbD domain-containing protein), and the uncharacterized proteins with m/z 6290 and 8308.
smiles,measurement,setting,value
CC(C)CCCCC(=O)N[C@@H](CCN)C(=O)N[C@H](C(=O)N[C@@H](CCN)C(=O)N[C@H]1CCNC(=O)[C@H]([C@@H](C)O)NC(=O)[C@H](CCN)NC(=O)[C@H](CCN)NC(=O)[C@H](CC(C)C)NC(=O)[C@@H](CC(C)C)NC(=O)[C@H](CCN)NC1=O)[C@@H](C)O [colistin] ({Heptanoyl(6-Me)}-[Dab]T[Dab][Dab][Dab][dL]L[Dab][Dab]T; lactam 4-C),"Aire sous la courbe des pics observés, 6290",strain KP R9-1,0.00 unité arbitraire
same,"Aire sous la courbe des pics observés, 8308",strain KP R9-1,0 unité arbitraire
same,"Aire sous la courbe des pics observés, CsbD domain-containing protein",strain KP R9-1,0 unité arbitraire
same,"Aire sous la courbe des pics observés, DNA binding protein H-NS",strain KP R9-1,0.00 unité arbitraire
same,"Aire sous la courbe des pics observés, Protéine ribosomique 50S L29",strain KP R9-1,0 unité arbitraire
same,"Aire sous la courbe des pics observés, Protéine ribosomique 50S L31",strain KP R9-1,0 unité arbitraire
same,"Aire sous la courbe des pics observés, Protéine ribosomique 50S L34",strain KP R9-1,0 unité arbitraire
same,"Aire sous la courbe des pics observés, US9",strain KP R9-1,0 unité arbitraire
same,Ratio par protéine 6290/Colistine,strain KP R9-1,0.00
same,Ratio par protéine 8308/Colistine,strain KP R9-1,0.00
same,Ratio par protéine CsbD/Colistine,strain KP R9-1,0.00
same,Ratio par protéine DNA BP H-NS/Colistine,strain KP R9-1,0.00
same,Ratio par protéine L29/Colistine,strain KP R9-1,0.00
same,Ratio par protéine L31/Colistine,strain KP R9-1,0.00
same,Ratio par protéine L34/Colistine,strain KP R9-1,0.00
same,Ratio par protéine US9/Colistine,strain KP R9-1,0.00
same,Somme des ratios,strain KP R9-1,0.00
same,"Aire sous la courbe des pics observés, 6290",strain KP R9-2,0.00 unité arbitraire
same,"Aire sous la courbe des pics observés, 8308",strain KP R9-2,0 unité arbitraire
same,"Aire sous la courbe des pics observés, CsbD domain-containing protein",strain KP R9-2,0 unité arbitraire
same,"Aire sous la courbe des pics observés, DNA binding protein H-NS",strain KP R9-2,89 unité arbitraire
same,"Aire sous la courbe des pics observés, Protéine ribosomique 50S L29",strain KP R9-2,0 unité arbitraire
same,"Aire sous la courbe des pics observés, Protéine ribosomique 50S L31",strain KP R9-2,0 unité arbitraire
same,"Aire sous la courbe des pics observés, Protéine ribosomique 50S L34",strain KP R9-2,0 unité arbitraire
same,"Aire sous la courbe des pics observés, US9",strain KP R9-2,0 unité arbitraire
same,Ratio par protéine 6290/Colistine,strain KP R9-2,0.00
same,Ratio par protéine 8308/Colistine,strain KP R9-2,0.00
same,Ratio par protéine CsbD/Colistine,strain KP R9-2,0.00
same,Ratio par protéine DNA BP H-NS/Colistine,strain KP R9-2,0.11
same,Ratio par protéine L29/Colistine,strain KP R9-2,0.00
same,Ratio par protéine L31/Colistine,strain KP R9-2,0.00
same,Ratio par protéine L34/Colistine,strain KP R9-2,0.00
same,Ratio par protéine US9/Colistine,strain KP R9-2,0.00
same,Somme des ratios,strain KP R9-2,0.11
same,"Aire sous la courbe des pics observés, 6290",strain KP R16-1,0.00 unité arbitraire
same,"Aire sous la courbe des pics observés, 8308",strain KP R16-1,0 unité arbitraire
same,"Aire sous la courbe des pics observés, CsbD domain-containing protein",strain KP R16-1,0 unité arbitraire
same,"Aire sous la courbe des pics observés, DNA binding protein H-NS",strain KP R16-1,0.00 unité arbitraire
same,"Aire sous la courbe des pics observés, Protéine ribosomique 50S L29",strain KP R16-1,0 unité arbitraire
same,"Aire sous la courbe des pics observés, Protéine ribosomique 50S L31",strain KP R16-1,0 unité arbitraire
same,"Aire sous la courbe des pics observés, Protéine ribosomique 50S L34",strain KP R16-1,0 unité arbitraire
same,"Aire sous la courbe des pics observés, US9",strain KP R16-1,0 unité arbitraire
same,Ratio par protéine 6290/Colistine,strain KP R16-1,0.00
same,Ratio par protéine 8308/Colistine,strain KP R16-1,0.00
same,Ratio par protéine CsbD/Colistine,strain KP R16-1,0.00
same,Ratio par protéine DNA BP H-NS/Colistine,strain KP R16-1,0.00
same,Ratio par protéine L29/Colistine,strain KP R16-1,0.00
same,Ratio par protéine L31/Colistine,strain KP R16-1,0.00
same,Ratio par protéine L34/Colistine,strain KP R16-1,0.00
same,Ratio par protéine US9/Colistine,strain KP R16-1,0.00
same,Somme des ratios,strain KP R16-1,0.00
same,"Aire sous la courbe des pics observés, 6290",strain KP R16-2,0.00 unité arbitraire
same,"Aire sous la courbe des pics observés, 8308",strain KP R16-2,0 unité arbitraire
same,"Aire sous la courbe des pics observés, CsbD domain-containing protein",strain KP R16-2,0 unité arbitraire
same,"Aire sous la courbe des pics observés, DNA binding protein H-NS",strain KP R16-2,0.00 unité arbitraire
same,"Aire sous la courbe des pics observés, Protéine ribosomique 50S L29",strain KP R16-2,0 unité arbitraire
same,"Aire sous la courbe des pics observés, Protéine ribosomique 50S L31",strain KP R16-2,0 unité arbitraire
same,"Aire sous la courbe des pics observés, Protéine ribosomique 50S L34",strain KP R16-2,0 unité arbitraire
same,"Aire sous la courbe des pics observés, US9",strain KP R16-2,0 unité arbitraire
same,Ratio par protéine 6290/Colistine,strain KP R16-2,0.00
same,Ratio par protéine 8308/Colistine,strain KP R16-2,0.00
same,Ratio par protéine CsbD/Colistine,strain KP R16-2,0.00
same,Ratio par protéine DNA BP H-NS/Colistine,strain KP R16-2,0.00
same,Ratio par protéine L29/Colistine,strain KP R16-2,0.00
same,Ratio par protéine L31/Colistine,strain KP R16-2,0.00
same,Ratio par protéine L34/Colistine,strain KP R16-2,0.00
same,Ratio par protéine US9/Colistine,strain KP R16-2,0.00
same,Somme des ratios,strain KP R16-2,0.00
same,"Aire sous la courbe des pics observés, 6290",strain KP S10-1,837 unité arbitraire
same,"Aire sous la courbe des pics observés, 8308",strain KP S10-1,209 unité arbitraire
same,"Aire sous la courbe des pics observés, CsbD domain-containing protein",strain KP S10-1,0 unité arbitraire
same,"Aire sous la courbe des pics observés, DNA binding protein H-NS",strain KP S10-1,374 unité arbitraire
